# US8557796B2, “Substituted 1-oxa-2,8-diaza-spiro [4,5] dec-2-ene derivatives and related treatment methods” (Gruenenthal GmbH, priority 2001, dated 2013)
# Test system: batrachotoxin (BTX) binding site (binding site 2) of the sodium channel
# Assay: Bond test on the sodium channel, binding site 2 (BTX bond), [3H]-batrachotoxinin A20 α-benzoate displacement
# Conditions: rat cerebrocortex synaptosomes
row,Compound,"BTX bond, 10 μM, % inhibition [%]"
1,"O=C(NCc1cccs1)C1=NOC2(CCN(C(=O)c3ccc(SC(F)(F)F)cc3)CC2)C1 [Example 135, 8-(4-trifluoromethylsulphanyl-benzoyl)-1-oxa-2,8-diaza-spiro[4,5]dec-2-ene-3-carboxylic acid (thiophen-2-ylmethyl)-amide]",85
2,O=C(NC1CCCC1OCc1ccccc1)C1=NOC2(CCN(S(=O)(=O)c3ccc(F)cc3)CC2)C1 (centres unmarked) [Example 199],67
3,"COc1cc(OC)cc(N2CCN(C(=O)C3=NOC4(CCN(S(=O)(=O)c5ccc(Cl)s5)CC4)C3)CC2)c1 [Example 71, [8-(5-chloro-thiophene-2-sulphonyl)-1-oxa-2,8-diaza-spiro[4,5]dec-2-en-3-yl]-[4-(3,5-dimethoxy-phenyl)-piperazin-l-yl]-methanone]",54
4,"O=C(NCC1CC1)C1=NOC2(CCN(C(=O)c3ccc(SC(F)(F)F)cc3)CC2)C1 [Example 108, 8-(4-trifluoromethylsulphanyl-benzoyl)-1-oxa-2,8-diaza-spiro[4,5]dec-2-ene-3-carboxylic acid cyclopropylmethyl-amide]",43
5,O=C(NCc1cccs1)C1=NOC2(CCN(C(=O)c3cccc(Cl)c3)CC2)C1 [Example 208],74
6,"O=C(NCc1ccccc1)C1=NOC2(CCN(S(=O)(=O)c3cccs3)CC2)C1 [Example 136, 8-(thiophene-2-sulphonyl)-1-oxa-2,8-diaza-spiro[4,5]dec-2-ene-3-carboxylic acid benzylamide]",44
7,"O=C(NCc1ccccc1)C1=NOC2(CCN(C(=O)COCc3ccccc3)CC2)C1 [Example 171, 8-(2-benzyloxy-acetyl)-1-oxa-2,8-diaza-spiro[4,5]dec-2-ene-3-carboxylic acid benzylamide]",44
8,"O=C(C1=NOC2(CCN(S(=O)(=O)c3cccc(C(F)(F)F)c3)CC2)C1)N1CCN(CCCc2ccccc2)CC1 [Example 83, [4-(3-phenyl-propyl)-piperazin-1-yl]-[8-(3-trifluoromethyl-benzenesulphonyl)-1-oxa-2,8-diaza-spiro[4,5]dec-2-en-3-yl]-methanone]",72
9,"Cc1ccccc1N1CCN(C(=O)C2=NOC3(CCN(S(=O)(=O)c4cccs4)CC3)C2)CC1 [Example 27, [8-(thiophene-2-sulphonyl)-1-oxa-2,8-diaza-spiro[4,5]dec-2-en-3-yl]-(4-o-tolyl-piperazin-1-yl)-methanone]",74
10,"O=C(NCC1COc2ccccc2O1)C1=NOC2(CCN(S(=O)(=O)c3ccc(Cl)s3)CC2)C1 (centres unmarked) [Example 194, 8-(5-chloro-thiophene-2-sulphonyl)-1-oxa-2,8-diaza-spiro[4,5]dec-2-ene-3-carboxylic acid (2,3-dihydro-benzo[1,4]dioxin-2-ylmethyl)-amide]",68
11,"O=C(NCc1ccccc1)C1=NOC2(CCN(C(=O)c3ccc(Br)cc3)CC2)C1 [Example 212, 8-(4-bromo-benzoyl)-1-oxa-2,8-diaza-spiro[4,5]dec-2-ene-3-carboxylic acid benzylamide]",58
12,"CCOC(=O)C1CCCCN1C(=O)C1=NOC2(CCN(S(=O)(=O)c3ccc(Cl)s3)CC2)C1 (centres unmarked) [Example 155, 1-[8-(5-chloro-thiophene-2-sulphonyl)-1-oxa-2,8-diaza-spiro[4,5]dec-2-ene-3-carbonyl]-piperidine-2-carboxylic acid ethyl ester]",48
13,O=C(NC1CCCC1)C1=NOC2(CCN(C(=O)c3ccccc3COC(=O)c3ccccc3)CC2)C1 [Example 188],77
14,"O=C(NC1CCCC1)C1=NOC2(CCN(C(=O)c3cccnc3Oc3ccccc3)CC2)C1 [Example 153, 8-(2-phenoxy-pyridine-3-carbonyl)-1-oxa-2,8-diaza-spiro[4,5]dec-2-ene-3-carboxylic acid cyclopentylamide]",41
15,"Cc1cc(C(=O)N2CCC3(CC2)CC(C(=O)NCc2ccccc2)=NO3)c(C)o1 [Example 217, 8-(2,5-dimethyl-furan-3-carbonyl)-1-oxa-2,8-diaza-spiro[4,5]dec-2-ene-3-carboxylic acid benzylamide]",51
16,"C=C(C)CN(CC)C(=O)C1=NOC2(CCN(S(=O)(=O)c3ccc(OC(F)(F)F)cc3)CC2)C1 [Example 103, 8-(4-trifluoromethoxy-benzenesulphonyl)-1-oxa-2,8-diaza-spiro[4,5]dec-2-ene-3carboxylic acid ethyl-(2-methyl-allyl)-amide]",53
17,C=CCOC(=O)C(CC(=O)OC(C)(C)C)NC(=O)C1=NOC2(CCN(S(=O)(=O)c3cc(Cl)ccc3Cl)CC2)C1 (centres unmarked) [Example 53],47

row,Compound,"BTX bond, 10 μM, % inhibition [%]"
1,"Cc1ccc(S(=O)(=O)N2CCC3(CC2)CC(C(=O)NCc2cc(Cl)cc(Cl)c2)=NO3)cc1 [Example 63, 8-(toluene-4-sulphonyl)-1-oxa-2,8-diaza-spiro[4,5]dec-2-ene-3-carboxylic acid 3,5-dichlorobenzylamide]",38
2,"O=C(NC1CCCC1)C1=NOC2(CCN(C(=O)c3ccc([N+](=O)[O-])cc3Cl)CC2)C1 [Example 5, 8-(2-chloro-4-nitro-benzoyl)-1-oxa-2,8-diaza-spiro[4,5]dec-2-ene-3-carboxylic acid cyclopentylamide]",64
3,"O=C(NCc1cccs1)C1=NOC2(CCN(C(=O)c3ccccc3Cl)CC2)C1 [Example 152, 8-(2-chloro-benzoyl)-1-oxa-2,8-diaza-spiro[4,5]dec-2-ene-3-carboxylic acid (thiophen-2-ylmethyl)-amide]",56
4,O=C(NCc1cccs1)C1=NOC2(CCN(C(=O)C=Cc3ccccc3)CC2)C1 [Example 106],62
5,"Cc1ccc(C(C)NC(=O)C2=NOC3(CCN(S(=O)(=O)c4cccs4)CC3)C2)cc1 (centres unmarked) [Example 23, 8-(thiophene-2-sulphonyl)-1-oxa-2,8-diaza-spiro[4,5]dec-2-ene-3-carboxylic acid (1-p-tolyl-ethyl)-amide]",60
6,"Cc1onc(-c2c(Cl)cccc2Cl)c1C(=O)N1CCC2(CC1)CC(C(=O)NCc1cccs1)=NO2 [Example 197, 8-[3-(2,6-dichloro-phenyl)-5-methyl-isoxazole-4-carbonyl]-1-oxa-2,8-diaza-spiro[4,5]dec-2-ene-3-carboxylic acid (thiophen-2-ylmethyl)-amide]",70
7,O=C(C1=NOC2(CCN(S(=O)(=O)Cc3ccccc3)CC2)C1)N1CCN(CCCc2ccccc2)CC1 [Example 69],50
8,"CCCC(=O)N1CCC2(CC1)CC(C(=O)Nc1ccccc1)=NO2 [Example 85, 8-butyryl-1-oxa-2,8-diaza-spiro[4,5]dec-2-ene-3-carboxylic acid phenylamide]",62
9,CN(CCCNC(=O)C1=NOC2(CCN(S(=O)(=O)c3ccc(Cl)s3)CC2)C1)c1ccccc1 [Example 89],81
10,"Cc1ccc(S(=O)(=O)N2CCC3(CC2)CC(C(=O)N2CCN(C(C)c4ccccc4)CC2)=NO3)cc1 (stereo not drawn) [Example 32, [4-(1-phenyl-ethyl)-piperazin-l-yl]-[8-(toluene-4-sulphonyl)-1-oxa-2,8-diaza-spiro[4,5]dec-2-en-3-yl]-methanone]",66
11,"O=C(C1=NOC2(CCN(S(=O)(=O)c3ccc(OC(F)(F)F)cc3)CC2)C1)N(CCc1ccccc1)Cc1ccccc1 [Example 97, 8-(4-trifluoromethoxy-benzenesulphonyl)-1-oxa-2,8-diaza-spiro[4,5]dec-2-ene-3-carboxylic acid benzyl-phenethyl-amide]",79
12,O=C(C1=NOC2(CCN(S(=O)(=O)c3ccc(F)cc3)CC2)C1)N1CCN(C2CCCCCC2)CC1 [Example 218],79
13,"CN(CCc1c[nH]c2ccccc12)C(=O)C1=NOC2(CCN(S(=O)(=O)c3ccc(OC(F)(F)F)cc3)CC2)C1 [Example 16, 8-(4-trifluoromethoxy-benzenesulphonyl)-1-oxa-2,8-diaza-spiro[4,5]dec-2-ene-3 carboxylic acid [2-(1 H-indo1-3-yl)-ethyl]-methyl-amide]",60
14,"CCSc1ncccc1C(=O)N1CCC2(CC1)CC(C(=O)NCc1ccccc1)=NO2 [Example 115, 8-(2-ethylsulphanyl-pyridine-3-carbonyl)-1-oxa-2,8-diaza-spiro[4,5]dec-2-ene-3-carboxylic acid benzylamide]",48
15,"CN1CCCC1CCNC(=O)C1=NOC2(CCN(S(=O)(=O)c3ccc(Cl)s3)CC2)C1 (centres unmarked) [Example 61, 8-(5-chloro-thiophene-2-sulphonyl)-1-oxa-2,8-diaza-spiro[4,5]dec-2-ene-3-carboxylic acid [2-(1-methyl-pyrrolidin-2-yl)-ethyl]-amide]",79
16,"O=C(NCc1cccs1)C1=NOC2(CCN(S(=O)(=O)c3ccccc3Cl)CC2)C1 [Example 156, 8-(2-chloro-benzenesulphonyl)-1-oxa-2,8-diaza-spiro[4,5]dec-2-ene-3-carboxylic acid (thiophen-2-ylmethyl)-amide]",70
17,"O=C(NCc1cccs1)C1=NOC2(CCN(C(=O)c3ccc(F)c(Cl)c3)CC2)C1 [Example 184, 8-(3-chloro-4-fluorobenzoyl)-1-oxa-2,8-diaza-spiro[4,5]dec-2-ene-3-carboxylic acid (thiophen-2-ylmethyl)-amide]",73

# Same assay, conditions: rat cerebrocortex synaptosomes, 10 µM
row,Compound,"BTX bond, 10 μM, % inhibition [%]"
1,"Cc1ccc(S(=O)(=O)N2CCC3(CC2)CC(C(=O)NC2CCCC2OCc2ccccc2)=NO3)cc1 (centres unmarked) [Example 67, 8-(toluene-4-sulphonyl)-1-oxa-2,8-diaza-spiro[4,5]dec-2-ene-3-carboxylic acid (2-benzyloxy-cyclopentyl)-amide]",80
